Test results taken from US20110251238A1, “PPAR AGONIST COMPOSITIONS AND METHODS OF USE” (BIOPHARMED, priority 2008, published 2011).
Converted amounts (≈) assume the structure as drawn. Where a name gives a salt, the structure may show the parent alone. Read-outs that look alike come from different tables or passages of the source.

Experiments:
[1] = system: KB3 (epitheloid lung cancer) cell lines; experiment: Cell growth inhibition (cytotoxicity), MTS assay, KB3 cell line; assay type: cell-based; conditions: for cytotoxic activity in words: structure-cytotoxicity discussion
Protocol: Cell growth inhibition was determined by the MTS assay; the number of viable cells were proportional to the extent of formazan production in the presence or absence of drugs. […]

KaKa = experiment: Growth inhibition, MTT colorimetric assay, KaKa; assay type: cell-based; conditions: 72 h; 3 days with drug; means of six values; unit inferred; read-out: IC50 KaKa
Protocol: (§1) Compounds that met the criteria for activity on KB3 cells were further tested for drug growth inhibitory activity in 5 carcinoma, 6 glioma and 3 melanoma cell lines, shown in Table 4. A549 (human lung adenocarcinoma epithelial), BxPC3 (pancreatic cancer), LoVo (colon cancer), MCF-7 (epithelial breast cancer), PC3 (human prostate cancer), Hs683 (human glioma), T98G (glioblastoma), U373 (human glioblastoma-astrocytoma), U138 MG (human glioma), epithelial-like), SKMEL28 (human melanoma), B16-F10 (mouse melanoma) and RhTP (rhabdomyosarcoma) cell lines were cultured in presence of the drugs for 3 days. The cytotoxic activity is expressed as (IC50). Inhibition of cell proliferation measured by the MTT colorimetric assay. The values reported in Table 4 are means of six distinct values. The standard errors are <5% as compared to the mean values.

RhTP (rhabdomyosarcoma) = experiment: Growth inhibition, MTT colorimetric assay, RhTp; assay type: cell-based; conditions: 72 h; 3 days with drug; means of six values; unit inferred; read-out: IC50 RhTp
Protocol: as §1

Host = experiment: Growth inhibition, MTT colorimetric assay, Host; assay type: cell-based; conditions: 72 h; 3 days with drug; means of six values; unit inferred; read-out: IC50 Host
Protocol: as §1

[2] = system: BxPC3 (pancreatic cancer); experiment: Growth inhibition, MTT colorimetric assay, BxPC3; assay type: cell-based, human; conditions: Homo sapiens, BXPC-3, 72 h; carcinoma; 3 days with drug; means of six values; unit inferred; read-out: IC50 BxPC3
Protocol: Cells are cultured at 37° C. in Falcon culture dishes, incubated at 5% CO2 in a suitable culture medium available from Invitrogen Corp. Anti-proliferative activity is determined by an MTT assay (bromide of (3-[4,5-dimethylthiazolium-yl]diphenyltetrazolium)). According to one standard protocol, absorbance is measured at 570 nm (see Dumont et al. (2007) Neoplasia 9: 766-776.
as §1, with “A549” for “Compounds that met the criteria for activity on KB3 cells were further tested for drug growth inhibitory activity in 5 carcinoma, 6 glioma and 3 melanoma cell lines, shown in Table 4. A549”, “values.” for “values. The standard errors are <5% as compared to the mean values.”

[3] = system: A549 (human lung adenocarcinoma epithelial); experiment: Growth inhibition, MTT colorimetric assay, A549; assay type: cell-based; conditions: Homo sapiens, A549, 72 h; carcinoma; 3 days with drug; means of six values; unit inferred; read-out: IC50 A549
Protocol: as §1, with “A549” for “Compounds that met the criteria for activity on KB3 cells were further tested for drug growth inhibitory activity in 5 carcinoma, 6 glioma and 3 melanoma cell lines, shown in Table 4. A549”, “values.” for “values. The standard errors are <5% as compared to the mean values.”

SKMEL28 (human melanoma) = experiment: Growth inhibition, MTT colorimetric assay, SKMEL-28; assay type: cell-based; conditions: Homo sapiens, SK-MEL-28, 72 h; melanoma; 3 days with drug; means of six values; unit inferred; read-out: IC50 SKMEL-28
Protocol: as §1

B16-F10 (mouse melanoma) = experiment: Growth inhibition, MTT colorimetric assay, B16F10; assay type: cell-based; conditions: Mus musculus, B16-F10, 72 h; melanoma; 3 days with drug; means of six values; unit inferred; read-out: IC50 B16F10
Protocol: as §1

T98G (glioblastoma) = experiment: cells; assay type: cell-based; conditions: Homo sapiens, T98G, 72 h; glioma; 3 days with drug; means of six values; unit inferred; read-out: IC50 T98G
Protocol: as §1, with “A549” for “Compounds that met the criteria for activity on KB3 cells were further tested for drug growth inhibitory activity in 5 carcinoma, 6 glioma and 3 melanoma cell lines, shown in Table 4. A549”, “values.” for “values. The standard errors are <5% as compared to the mean values.”

[4] = system: MCF-7 (epithelial breast cancer); experiment: Growth inhibition, MTT colorimetric assay, MCF7; assay type: cell-based; conditions: Homo sapiens, MCF7, 72 h; carcinoma; 3 days with drug; means of six values; unit inferred; read-out: IC50 MCF7
Protocol: as §1, with “A549” for “Compounds that met the criteria for activity on KB3 cells were further tested for drug growth inhibitory activity in 5 carcinoma, 6 glioma and 3 melanoma cell lines, shown in Table 4. A549”, “values.” for “values. The standard errors are <5% as compared to the mean values.”

[5] = system: PC3 (human prostate cancer); experiment: Growth inhibition, MTT colorimetric assay, PC3; assay type: cell-based; conditions: Homo sapiens, 72 h; carcinoma; 3 days with drug; means of six values; unit inferred; read-out: IC50 PC3
Protocol: as §1

GL19 = experiment: Growth inhibition, MTT colorimetric assay, GL19; assay type: cell-based; conditions: GL19, 72 h; 3 days with drug; means of six values; unit inferred; read-out: IC50 GL19
Protocol: as §1

LoVo (colon cancer) = experiment: Growth inhibition, MTT colorimetric assay, LoVo; assay type: cell-based; conditions: Homo sapiens, LoVo, 72 h; carcinoma; 3 days with drug; means of six values; unit inferred; read-out: IC50 LoVo
Protocol: as §1, with “A549” for “Compounds that met the criteria for activity on KB3 cells were further tested for drug growth inhibitory activity in 5 carcinoma, 6 glioma and 3 melanoma cell lines, shown in Table 4. A549”, “values.” for “values. The standard errors are <5% as compared to the mean values.”

U138 MG (human glioma) = experiment: Growth inhibition, MTT colorimetric assay, U138; assay type: cell-based; conditions: Homo sapiens, U138-MG, 72 h; glioma; 3 days with drug; means of six values; unit inferred; read-out: IC50 U138
Protocol: as §1

[6] = system: U373 (human glioblastoma-astrocytoma); experiment: Growth inhibition, MTT colorimetric assay, U373; assay type: cell-based; conditions: Homo sapiens, U373 MG, 72 h; glioma; 3 days with drug; means of six values; unit inferred; read-out: IC50 U373
Protocol: as §1

Hs683 (human glioma) = experiment: Growth inhibition, MTT colorimetric assay, HS683; assay type: cell-based; conditions: Homo sapiens, Hs 683, 72 h; glioma; 3 days with drug; means of six values; unit inferred; read-out: IC50 HS683
Protocol: as §1, with “A549” for “Compounds that met the criteria for activity on KB3 cells were further tested for drug growth inhibitory activity in 5 carcinoma, 6 glioma and 3 melanoma cell lines, shown in Table 4. A549”, “values.” for “values. The standard errors are <5% as compared to the mean values.”

[7] = system: bloodstream forms of T. brucei and T. congolense; experiment: Trypanocidal activity in vitro, Alamar Blue assay; assay type: cell-based, Trypanosoma brucei and T. congolense
From the text: Trypanosoma brucei and T. congolense are the causative agents of sleeping sickness in humans and nagana in cattle, respectively. The protozoan parasites live extracellularlyin blood and tissue fluids of mammals and are transmitted by the bite of infected tsetse flies (Glossina spp.). Here the trypanocidal activity against bloodstream forms of T. brucei and T. congolense of bis-8-hydroxy quinoline N-substituted benzylamines derivatives was investigated in vitro, according to methods described in. Steverding et al. (2006) Kinetoplastid Biology and Disease, 5(3): 1-5; Hongmance et al., (2007) Antimicrob. Agents Chemother. 51:1105-1106; and Zhao et al., (2005) Bio-org. Med. Chem.; 13: 3921-3926. Cells were seeded into 96-well tissue culture plates in 200 μl medium containing various concentrations of analogues dissolved in H2O. The controls contained the respective solvent alone. […] After 24 h (trypanosomes) or 43 h (HL-60) incubation, 20 μl of the colorimetric viability indicator Alamar Blue® was added to each well. The cells were incubated for a further 24 h (trypanosomes) or 5 h (HL-60) so that the total incubation time was 48 h. Then, the plates were read on a Dynatech MR5000ELISA reader (Denkendorf, Germany),using a test wavelength of 550 nm and a reference wave length of 630 nm. Each test was set up in duplicate and repeated three times. For comparison, the general cytotoxicity of the compounds was assayed with human myeloid leukaemia HL-60 cells. The anti-trypanosomal activities and the general cytotoxicities of the new analogues were evaluated using the Alamar Blue® assay.

[8] = Table 3A, MTS assay, triplicate, read-out: KB3 IC50
[9] = KB3, Table 3B, MTS assay, triplicate, read-out: KB3 IC50
[10] = KB3, Table 3A, MTS assay, triplicate, read-out: KB3 IC50
[11] = 50% growth inhibition, 48 h total incubation, read-out: GI50
[12] = lowest concentration at which all cells were killed, 48 h total incubation, read-out: MIC

## 5,5′-(2-(pyridin-2-yl)ethylazanediyl)bis(methylene)diquinolin-8-ol) [BPM19,193]
[1]; [8]
  IC50: > 10 µM

## Cc1ccc(C(=O)NCc2ccc(O)c3ncccc23)cc1 [BPM18,203, N-((8-hydroxyquinolin-5-yl)methyl)-4-methylbenzamide]
[1]; [9]
  IC50: 1 µM
[1]; KB3 cell line
  CC50: 1 µM
  cytotoxic activity in words: inactive or only weakly active

## CC(=O)O[C@@]12CO[C@@H]1C[C@H](O)[C@@]1(C)C(=O)[C@H](O)C3=C(C)[C@@H](OC(=O)[C@H](O)[C@@H](NC(=O)OC(C)(C)C)c4ccccc4)C[C@@](O)([C@@H](OC(=O)c4ccccc4)[C@H]21)C3(C)C [docetaxel, reference compound]
[1]; compared with KB3 values, read-out: IC50 value of reference drug
  IC50: 0.0001 µM

## Oc1ccc(CN(Cc2ccccc2)Cc2ccccc2)c2cccnc12 [BPM19,230, 5-((dibenzylamino)methyl)quinolin-8-ol]
[1]; [9]
  IC50: 1 µM

## O=C(O)C1CCC(CN(Cc2ccc(O)c3ncccc23)Cc2ccc(O)c3ncccc23)CC1 (stereo not shown) [BPM19,225, 4-((bis((8-hydroxyquinolin-5-yl)methyl)amino)-methyl)cyclohexanecarboxylic acid]
KaKa
  IC50: > 10 µM
RhTP (rhabdomyosarcoma)
  IC50: > 10 µM
Host
  IC50: > 10 µM
[2]
  IC50: 4.34 µM
[3]
  IC50: 0.661 µM
SKMEL28 (human melanoma)
  IC50: > 10 µM
B16-F10 (mouse melanoma)
  IC50: > 10 µM
T98G (glioblastoma)
  IC50: 9.76 µM
[4]
  IC50: 9.46 µM
[5]
  IC50: 0.993 µM
GL19
  IC50: 7.6 µM
LoVo (colon cancer)
  IC50: 0.422 µM
U138 MG (human glioma)
  IC50: > 10 µM
[6]
  IC50: 3.73 µM
Hs683 (human glioma)
  IC50: 2.86 µM

## Oc1ccc(CN(Cc2ccc(OC(F)(F)F)cc2)Cc2ccc(O)c3ncccc23)c2cccnc12 [BPM19,205, 5,5′-(4-(trifluoromethoxy)benzylazanediyl)bis(methylene)diquinolin-8-ol]
[1]; [10]
  IC50: 0.1 to 1 µM
[7]; [11]
  GI50: 0.32 ± 0.02 µM
[7]; [12]
  MIC: 1 µM (≈ 0.505 µg/mL)

## Cc1ccc2c(CN(Cc3ccc(C(F)(F)F)cc3)Cc3ccc(O)c4nc(C)ccc34)ccc(O)c2n1 [BPM19,876, 5,5′-(4-trifluoromethylbenzylazanediyl)bis(methylene)bis(2-methylquinolin-8-ol)]
[7]; [11]
  GI50: 3.71 ± 0.24 µM
[7]; [12]
  MIC: 100 µM (≈ 51.8 µg/mL)

## Cc1ccc(CNCc2ccc(O)c3ncccc23)cc1 [BPM19,167, 5-((4-methylbenzylamino)methyl)quinolin-8-ol dihydrochloride]
[7]; 48 h
  GI50: 14.8 ± 2.59 µM
  MIC: 100 µM

## 5,5′-(2-(pyrrolidin-1-yl)ethylazanediyl)bis(methylene)diquinolin-8-ol) [BPM19,214]
[1]; [8]
  IC50: 1 µM

## Oc1ccc(CN(Cc2ccc(O)c3ncccc23)CC2CCCO2)c2cccnc12 (stereo not shown) [BPM19,197, 5,5′-((tetrahydrofuran-2-yl)methylazanediyl)bis(methylene)diquinolin-8-ol]
[1]; [10]
  IC50: 10 µM
[7]; [11]
  GI50: 2.99 ± 0.05 µM
[7]; [12]
  MIC: 10 µM (≈ 4.15 µg/mL)

## Oc1ccc(CNCc2cccc(C(F)(F)F)c2)c2cccnc12 [BPM19,114, 5-((3-(trifluoromethyl)benzylamino)methyl)quinolin-8-ol]
[1]; [9]
  IC50: 0.2 µM
[1]; KB3 cell line
  cytotoxic activity in words: significant cytotoxic activity

## Oc1ccc(N(Cc2cccc3ccccc23)c2ccc(O)c3ncccc23)c2cccnc12 [BPM19,702, 5,5′-(naphthalen-1-ylmethylazanediyl)diquinolin-8-ol]
[7]; [11]
  GI50: 0.29 µM
[7]; [12]
  MIC: 1 µM (≈ 0.444 µg/mL)

## Cn1cccc1CN(Cc1ccc(O)c2ncccc12)Cc1ccc(O)c2ncccc12 [BPM19,216, 5,5′-((1-methyl-1H-pyrrol-2-yl)methylazanediyl)bis(methylene)diquinolin-8-ol]
[7]; [11]
  GI50: 0.32 ± 0.01 µM
[7]; [12]
  MIC: 1 µM (≈ 0.425 µg/mL)

## Oc1ccc(CNCc2ccc(C(F)(F)F)cc2)c2cccnc12 [BPM19,191, 5-((4-(trifluoromethyl)benzylamino)methyl)quinolin-8-ol]
[1]; [9]
  IC50: 10 µM

## Oc1ccc(CNCc2ccccc2)c2cccnc12 [BPM18,726, 5-((benzylamino)methyl)quinolin-8-ol dihydrochloride]
[1]; [9]
  IC50: > 1 µM
